Data: EP0426021A1, “Condensed imidazole derivatives and processes for preparation thereof” (FUJISAWA PHARMACEUTICAL CO., LTD., priority 1989, dated 1991)

System: spontaneous hypertensive rats
Conditions: oral dose of 100 mg/kg, dissolved in water, male spontaneous hypertensive rats
Experimental: (B) Effect on spontaneous hypertensive rats
14 to 17-week-old male spontaneous hypertensive rats with mean arterial blood pressure of about 150 mmHg, weighing 270-326 g, were used. The animals were cannulated in the left femoral artery and the mean blood pressure and heart rate were measured with a pressure-transducer. The drugs were given orally. The animals were deprived of food for about 18 hours before oral dosing. The test drugs were dissolved in water, and given in oral dose of 100 mg/kg.

CCCCc1nc2cccnc2n1Cc1ccc(-c2ccccc2-c2nnn[n-]2)cc1.[Na+] [compound ①, Sodium salt of 2-butyl-3-[[2′-(1H-tetrazol-5-yl)biphenyl-4-yl]methyl]-3H-imidazo[4,5-b]pyridine]
Effect Max (mean ratio of maximum decrease of blood pressure): 17.6%
